One may read the Kd as the equilibrium constant for the complex coming apart. Read a high Kd as a looser complex. For orientation: stoichiometry N means a count of units in the complex or per binding partner.

In one data set the target is T1, KcsA (Streptomyces lividans, UniProt P0A334).
T1 construct: wild-type (WT) KcsA, homotetramer, His-tag purified from E. coli, in DDM detergent
T1 sequence (P0A334 1-160): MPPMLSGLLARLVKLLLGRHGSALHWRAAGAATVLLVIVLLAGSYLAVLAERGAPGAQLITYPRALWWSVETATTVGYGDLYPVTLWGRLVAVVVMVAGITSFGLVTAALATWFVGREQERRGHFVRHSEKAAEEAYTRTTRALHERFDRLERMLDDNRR
Kind of data set: thermal denaturation (intrinsic fluorescence) titration with fitted KD; pH […] (pH […]). The data set is classed as binding.

In another data set the target is T2, W67 KcsA (Streptomyces lividans, UniProt P0A334, W113F/W26F/W68F/W87F).
T2 construct: quadruple mutant KcsA with a single Trp (W67) per subunit, homotetramer, His-tag purified from E. coli, in DDM detergent
Nature of the data set: thermal denaturation titration with fitted KD; pH […] (pH […]); effect supported by homo-FRET. It counts as binding.

Data set [1] has as its target T3, wild-type KcsA potassium channel (Streptomyces lividans), P0A334.
T3 chain: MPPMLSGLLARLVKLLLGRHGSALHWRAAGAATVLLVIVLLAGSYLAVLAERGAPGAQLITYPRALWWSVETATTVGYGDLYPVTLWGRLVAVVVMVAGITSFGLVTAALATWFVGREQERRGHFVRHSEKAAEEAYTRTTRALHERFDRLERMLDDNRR
Kind of data set: SDS-PAGE; 12% SDS-PAGE of the detergent-solubilised (DDM) channel at room temperature, 10 mM Na+, pH 7.0 and pH 4.0, without or with 1 or 100 µM TOA+. As to conditions: remark: other sources report otherwise.

Data set [2] concerns the molecule itself. Nature of the data set: FRET or BRET; homo-FRET among the W67 residues of the subunits, from steady-state and time-resolved fluorescence anisotropy; 5 µM protein in 5 mM DDM, pH 7.0 or pH 4.0, K+ titrated, with or without 100 µM TOA+. A general note: BRET reads energy transfer from a luciferase to a nearby fluorophore.

Regarding `CCCCCCCC[N+](CCCCCCCC)(CCCCCCCC)CCCCCCCC` [tetraoctylammonium], the Kd on KcsA is 180 nM; at W67 KcsA, 107 nM.

B1: wild-type KcsA potassium channel, P0A334 1-160 (natural protein)
chain: MPPMLSGLLARLVKLLLGRHGSALHWRAAGAATVLLVIVLLAGSYLAVLAERGAPGAQLITYPRALWWSVETATTVGYGDLYPVTLWGRLVAVVVMVAGITSFGLVTAALATWFVGREQERRGHFVRHSEKAAEEAYTRTTRALHERFDRLERMLDDNRR
Regarding B1, the stoichiometry N in data set [1] came out at 4.

B2: W67 KcsA (quadruple mutant W26, 68, 87, 113F KcsA with a single tryptophan, W67, per subunit) (natural protein, Streptomyces lividans, UniProt P0A334 1-160, looked up)
chain: MPPMLSGLLARLVKLLLGRHGSALHFRAAGAATVLLVIVLLAGSYLAVLAERGAPGAQLITYPRALWFSVETATTVGYGDLYPVTLFGRLVAVVVMVAGITSFGLVTAALATFFVGREQERRGHFVRHSEKAAEEAYTRTTRALHERFDRLERMLDDNRR
notes: KcsA, prokaryotic K+ channel from Streptomyces lividans, native Trp residues 26, 68, 87 and 113 mutated to Phe; also called KcsA W26, 68, 87, 113F; W67 mutant channel
B2: the binding result in data set [2] is reported as “binds”.
